Structures are written as SMILES. Marks after values point to notes of the source that are not given here.

The test has as its system TNBS-induced ulcerative colitis model mice. As to the kind of experiment: TNBS-induced mice ulcerative colitis model. It is filed as in vivo, BALB/c male mice. Also on record: key to Scores of gross morphological damages: 0 = no adhesion/ulcer/inflammation, 4+ = severe ulcers (+1 per cm). The following applies: for Histopathology scores: H&E colon sections, epithelial cells and inflammatory cell infiltration points; for Histopathology scores / Scores of gross morphological damages / Score (body weight index according to the disease activity index, DAI) / Length of the colon / Weight of the colon / weight/length ratio (average) of colon: ig 7 days, sulfasalazine 500 mg/kg; for Histopathology scores / Scores of gross morphological damages / Score (body weight index according to the disease activity index, DAI) / Length of the colon / Weight of the colon / weight/length ratio (average) of colon / Ratio of weight loss: compound 20 mg/kg; for Scores of gross morphological damages: colon adhesion, ulceration, inflammation points; for Score (body weight index according to the disease activity index, DAI): 0-4 points by weight decrease; for Length of the colon / Weight of the colon: 24 hours after last administration; for diarrhea of the mice (general condition): TNBS-mediated UC model BALB/c mice, Compound 16 in three different dosage groups, sulfasalazine control group; for extent of ulcer lesions of colon and visceral adhesions: compound 312 at 5 mg/kg, 20 mg/kg, 50 mg/kg and positive drugs, vs model group; for histopathology of colon (HE staining, mucosal integrity / lesions): compared with the model group; for weight/length ratio (average) of colon: colon weight (g) / length (cm); for Ratio of weight loss: ig daily for 7 days from day of modeling, positive drug sulfasalazine 500 mg/kg, 10 mice per group. Here is the method:
BALB/c male mice (each 18-22 g) of SPF level were purchased from Shanghai Slack Laboratory Animal Co., Ltd. and were used in experiments after adaptive feeding for 7 days.
BALB/c male mice were kept in an animal cage (daylight and darkness of 12 hours, respectively) at a temperature of 20-25° C. and relative humidity of 50-60%, free access to food and water.
Mice were randomly divided into normal control group, trinitrobenzenesulfonic acid (TNBS) model group, drug treatment group and positive drug control group (sulfasalazine 500 mg/kg).
All of the mice in model group and administration group were shaved in the abdomen (area 2×2 cm) and sensitized with 1% TNBS (dissolved in 50% ethanol). On the 7th day, the mice were fasted, but not water. After 24 hours, the mice were anesthetized through intraperitoneal injection of 0.1 ml of 10% chloral hydrate and 2% TNBS was used for lavation to establish a mouse model of ulcerative colitis. A gavage needle for rat was inserted into the colon of a mouse, the tip of the needle was about 3˜3.5 cm away from the anus, and 0.1 ml of modeling solution (5% TNBS and deionized water were mixed at a volume ratio of 4:1, and the obtained solution was mixed with absolute ethanol at a volume ratio of 1:1, so as to obtain the modeling solution) was injected. The mice were put back into the cage and wake up naturally. The mice in the normal control group were injected with 0.12 ml of solvent (50% ethanol solution) by the same manner.
Administration was started on the day of modeling (using 0.5% sodium carboxymethylcellulose, CMC-Na) for 7 consecutive days.
At 24 hours after the last administration, the mice were sacrificed by cervical dislocation, the peritoneum was cut open, and the whole colon was taken. The intestine was cut longitudinally along the mesenteric margin, rinsed with ice physiological saline, placed on ice, and the pathological changes of the colon were observed. The fat and mesentery were removed, the water was blotted with filter paper, the weight of the colon was weighed and the length was measured. The colon was fixed in 4% formaldehyde for more than 24 hours, dehydrated, paraffin-embedded and H&E stained, and the pathological sections were observed.
The mice were observed and recorded daily for mental state, fur color, and activities. The mice was weighed daily and observed for the stool traits. The body weight index according to the disease activity index (DAI) is as follows:
After the colon of a mouse was removed, the weight of the colon was measured with a precision electronic balance, the length was measured with a vernier caliper, and the weight/length ratio of the colon was calculated.
The criteria for scores were: no adhesion, no ulcer, no inflammation, 0 points; mild adhesion, local congestion, no ulcer, 1 point; severe adhesion, 1 ulcer (area less than 1 cm), no obvious inflammation, 2 points; more than 1 ulcers (area less than 1 cm) with inflammation, 3 points; 2 severe ulcers (area greater than 1 cm) with inflammation, 4 points; and 1 point for each 1 cm increase in ulcer area.
Pathological changes of colon tissue were observed under light microscope, and the scores were recorded. The criteria for scores are as follows:
1) Epithelial cells: normal morphology, 0 points; loss of goblet cells, 1 point; large loss of goblet cells, 2 points; loss of crypt cells, 3 points; large loss of crypt cells, 4 points.
2) Infiltration of inflammatory cells: no infiltration, 0 points; infiltration in the basal layer of the crypt, 1 point; infiltration to the muscular layer of the mucosa, 2 points; infiltration to the muscular layer of the mucosa with mucosal thickening and obvious edema, 3 points; infiltration to the submucosal layer, 4 points.
Data were expressed as […] (mean±S.E.M.), data were analyzed using SPSS statistical software, and one-way ANOVA and Tukey's HSD post hoc test were used for comparison between groups. p<0.05 was considered statistically significant.

As for `CN(/N=C/c1ccccc1C(=O)O)c1nc(-c2ccccc2)cs1` [Compound 20, (E)-4-phenyl-2-[1-methyl-2-(2-carboxybenzylidene)hydrazino]thiazole], the Histopathology scores is 3.65 ± 0.42 and the “Scores of gross morphological damages” value is given as 3.33 ± 0.59.

As to `O=C(O)c1cc(/N=N/c2ccc(S(=O)(=O)Nc3ccccn3)cc2)ccc1O` [sulfasalazine, reference compound], the “Score (body weight index according to the disease activity index, DAI)” value came to 1; the “Length of the colon” value came out at 5.814 ± 0.465 cm; the “Weight of the colon” value is 0.145 ± 0.018 g; the Histopathology scores was 1.71 ± 0.69. In addition, the “Scores of gross morphological damages” value is given as 0.81 ± 0.69, the “weight/length ratio (average) of colon” value is recorded as 0.025# and the “Ratio of weight loss” value came to 1.54 ± 3.72. Further, the “diarrhea of the mice (general condition)” value (FIG. 2) is listed as “mild”. The death of mice entry (FIG. 2, on the 8th day of the experiment, model group mortality about 50%) is reported as “only one mouse died”. Further, the “extent of ulcer lesions of colon and visceral adhesions” value (FIG. 3) was “can improve the extent of ulcer lesions of colon and visceral adhesions”. Further, the “histopathology of colon (HE staining, mucosal integrity / lesions)” value (FIG. 4) is given as “largely reversed”.

As to `Cc1sc(N/N=C/c2ccccc2C(=O)O)nc1-c1ccccc1` [Compound 17, (E)-5-methyl-4-phenyl-2-(2-carboxylbenzylidenehydrazino)thiazole], the “Length of the colon” value is reported as 5.124 ± 0.332 cm, the “Weight of the colon” value is recorded as 0.159 ± 0.034 g and the “weight/length ratio (average) of colon” value is on record as 0.030#.

Regarding `CN(/N=C/c1cc(F)c(F)cc1C(=O)O)c1nc(-c2ccccc2Cl)cs1` [Compound 23], the “Score (body weight index according to the disease activity index, DAI)” value came out at 3; the “Length of the colon” value amounted to 4.997 ± 0.476 cm; the “Weight of the colon” value worked out at 0.153 ± 0.027 g; the Histopathology scores is 2.32 ± 0.58. Besides, the “Scores of gross morphological damages” value is 2.02 ± 0.60, the “weight/length ratio (average) of colon” value is 0.030# and the “Ratio of weight loss” value came to 6.27 ± 2.76.

`CN(/N=C/c1ccc(C(F)(F)F)cc1C(=O)O)c1nc(-c2ccccc2Cl)cs1` [Compound 8, (E)-4-(2-chlorophenyl)-2-[1-methyl-2-(4-trifluoromethyl-2-carboxybenzylidene)hydrazino]thiazole]: the “Score (body weight index according to the disease activity index, DAI)” value stood at 1; the “Length of the colon” value was 6.005 ± 0.452 cm; the “Weight of the colon” value is given as 0.157 ± 0.027 g; the Histopathology scores was 1.59 ± 0.68. The “Scores of gross morphological damages” value worked out at 1.42 ± 0.78, the “weight/length ratio (average) of colon” value was 0.026# and the “Ratio of weight loss” value stood at 1.07 ± 2.98.

Regarding `CN(/N=C/c1ccc(F)cc1C(=O)O)c1nc(-c2ccccc2Cl)cs1` [Compound 10, (E)-4-(2-chlorophenyl)-2-[1-methyl-2-(2-carboxyl-4-fluorobenzylidene)hydrazino]thiazole], the “Score (body weight index according to the disease activity index, DAI)” value is 1; the “Length of the colon” value stood at 6.321 ± 0.436 cm; the “Weight of the colon” value was 0.162 ± 0.045 g; the Histopathology scores is recorded as 2.09 ± 0.44. The “Scores of gross morphological damages” value is given as 1.02 ± 0.41, the “weight/length ratio (average) of colon” value is 0.026# and the “Ratio of weight loss” value was 1.92 ± 3.20.

Turning to `Cc1ccc(/C=N/Nc2nc(-c3ccccc3Cl)cs2)c(C(=O)O)c1` [Compound 9-1], the “Length of the colon” value is on record as 5.985 ± 0.363 cm, the “Weight of the colon” value was 0.152 ± 0.023 g, the Histopathology scores is reported as 3.94 ± 0.51 and the “Scores of gross morphological damages” value was 3.63 ± 0.71. Besides, the “weight/length ratio (average) of colon” value is given as 0.025#.

Consider `O=C(O)c1ccccc1/C=N/Nc1nc(-c2ccccc2Cl)cs1` [Compound 16, (E)-4-(2-chlorophenyl)-2-(2-carboxybenzylidenehydrazino)thiazole], for which the “Score (body weight index according to the disease activity index, DAI)” value is 1; the Histopathology scores was found to be 2.54 ± 0.49; the “Scores of gross morphological damages” value was 2.22 ± 0.54; the “Ratio of weight loss” value amounted to 3.55 ± 1.47. Further, the “diarrhea of the mice (general condition)” value (FIG. 2) is listed as “relieved compared with the model group”. Also, the “effect on colonic lesions, comparison of dosages” value (FIG. 3, 5 mg/kg) is given as “best effect on colonic lesions”. In addition, for the setting “FIG. 3”, the “extent of ulcer lesions of colon and visceral adhesions” value is “can improve the extent of ulcer lesions of colon and visceral adhesions”. Besides, the “histopathology of colon, comparison of dosages” value (FIG. 4, 5 mg/kg and 50 mg/kg vs 20 mg/kg) is reported as “more effective than those at 20 mg/kg”. Where the note is “FIG. 4”, the “histopathology of colon (HE staining, mucosal integrity / lesions)” value is on record as “mucosal integrity was improved to a greater extent”.

For the compound `O=C(O)c1c(F)cccc1/C=N/Nc1nc(-c2ccccc2Cl)cs1` [Compound 58, (E)-2-((2-(4-(2-chlorophenyl)thiazol-2-yl)hydrazono)methyl)-6-fluorobenzoic Acid], the “Length of the colon” value came to 5.575 ± 0.392 cm, the “Weight of the colon” value turned out to be 0.162 ± 0.028 g, the Histopathology scores was 3.59 ± 0.61 and the “Scores of gross morphological damages” value was determined as 4.32 ± 0.79. Also, the “weight/length ratio (average) of colon” value is listed as 0.029#.

As to `O=C(O)c1ccccc1/C=N/Nc1nc(-c2cc(Cl)ccc2Cl)cs1` [Compound 55, (E)-2-((2-(4-(2,5-dichlorophenyl)thiazol-2-yl)hydrazono)methyl)benzoic Acid], the “Score (body weight index according to the disease activity index, DAI)” value worked out at 1; the “Length of the colon” value is reported as 5.675 ± 0.222 cm; the “Weight of the colon” value is on record as 0.148 ± 0.033 g; the Histopathology scores is recorded as 1.68 ± 0.32. Also, the “Scores of gross morphological damages” value is listed as 1.99 ± 0.52, the “weight/length ratio (average) of colon” value was 0.026# and the “Ratio of weight loss” value amounted to 2.74 ± 4.61.

Regarding `CN(/N=C/c1ccccc1C(=O)O)c1nc(-c2ccccc2Cl)cs1` [Compound 1, (E)-4-(2-chlorophenyl)-2-[1-methyl-2-(2-carboxybenzylidene)hydrazino]thiazole], the “Score (body weight index according to the disease activity index, DAI)” value was found to be 1; the “Length of the colon” value was 5.575 ± 0.452 cm; the “Weight of the colon” value is on record as 0.162 ± 0.027 g; the Histopathology scores was found to be 2.54 ± 0.62. Also, the “Scores of gross morphological damages” value came to 2.32 ± 0.69, the “weight/length ratio (average) of colon” value is 0.029# and the “Ratio of weight loss” value is given as 2.61 ± 4.53.

On to `Cc1ccc(/C=N/N(C)c2nc(-c3ccccc3Cl)cs2)c(C(=O)O)c1` [Compound 9, (E)-4-(2-chlorophenyl)-2-[1-methyl-2-(4-methyl-2-carboxybenzylidene)hydrazino]thiazole], for which the “Score (body weight index according to the disease activity index, DAI)” value is 1 and the “Ratio of weight loss” value came to 3.29 ± 4.70.

With `CN(/N=C/c1ccccc1C(=O)O)c1nc(-c2cccc(Cl)c2)cs1` [Compound 21, (E)-4-(3-chlorophenyl)-2-[1-methyl-2-(2-carboxybenzylidene)hydrazino]thiazole], the “Length of the colon” value is 4.986 ± 0.452 cm, the “Weight of the colon” value is on record as 0.158 ± 0.025 g, the Histopathology scores amounted to 2.54 ± 0.62 and the “Scores of gross morphological damages” value is 2.31 ± 0.79. Besides, the “weight/length ratio (average) of colon” value is recorded as 0.032#.

The values above are taken from patent US20190290620A1, “APPLICATIONS OF NOVEL THIAZOLE DERIVATIVE IN TREATING INFLAMMATORY BOWEL DISEASES” (EAST CHINA UNIVERSITY OF SCIENCE AND TECHNOLOGY, priority 2016, published 2019).
